# In ChEMBL document CHEMBL5038633 (J Med Chem, 2022):
# *1 amine or outer side, *2 acyl side, *3 side chain or, on linkers, in order; H or OH if unused. Where a SMILES comes first, the peptide text is derived from it. Bridges are numbered along the chain shown (N, C = ends). [ ]: non-standard residue; d: D form. Abu(4,4,4-F3) = N[C@@H](CC(F)(F)F)C(=O)O; Phe(4-Cl) = N[C@@H](Cc1ccc(Cl)cc1)C(=O)O; X1 = O=C(O)/C=C/[C@H](N[*:1])C(=O)[*:2]; Chg = N[C@H](C(=O)O)C1CCCCC1
# Columns and labels:
# [1] = biological target: Sodium channel protein type 8 subunit alpha (Homo sapiens, UniProt Q9UQD0); test: Inhibition of human Nav1.6 stably expressed in cells with train pulses to -20 mV at 0.1 Hz and holding potential of -85 mV by whole-cell Qube-automated patch clamp assay; format: cell-based
# [2] = biological target: Sodium channel protein type 4 subunit alpha (Homo sapiens, UniProt P35499); test: Inhibition of human Nav1.4 stably expressed in cells with train pulses to -20 mV at 0.1 Hz and holding potential of -95 mV by whole-cell Qube-automated patch clamp assay; format: cell-based
# [3] = Inhibition of mast cell degranulation in Wistar Han rat peritoneal lavage mast cells assessed as inhibition histamine release by measuring lowest concentration at which histamine release observed measured after 30 mins; format: functional; details: 0.5 h
# [4] = biological target: Sodium channel protein type 9 subunit alpha (Homo sapiens, UniProt Q15858); test: Inhibition of human Nav1.7 stably expressed in cells with train pulses to -20 mV at 0.1 Hz and holding potential of -95 mV by Qube-automated patch clamp assay; format: cell-based
# Sequence of Sodium channel protein type 9 subunit alpha (Q15858 whole entry): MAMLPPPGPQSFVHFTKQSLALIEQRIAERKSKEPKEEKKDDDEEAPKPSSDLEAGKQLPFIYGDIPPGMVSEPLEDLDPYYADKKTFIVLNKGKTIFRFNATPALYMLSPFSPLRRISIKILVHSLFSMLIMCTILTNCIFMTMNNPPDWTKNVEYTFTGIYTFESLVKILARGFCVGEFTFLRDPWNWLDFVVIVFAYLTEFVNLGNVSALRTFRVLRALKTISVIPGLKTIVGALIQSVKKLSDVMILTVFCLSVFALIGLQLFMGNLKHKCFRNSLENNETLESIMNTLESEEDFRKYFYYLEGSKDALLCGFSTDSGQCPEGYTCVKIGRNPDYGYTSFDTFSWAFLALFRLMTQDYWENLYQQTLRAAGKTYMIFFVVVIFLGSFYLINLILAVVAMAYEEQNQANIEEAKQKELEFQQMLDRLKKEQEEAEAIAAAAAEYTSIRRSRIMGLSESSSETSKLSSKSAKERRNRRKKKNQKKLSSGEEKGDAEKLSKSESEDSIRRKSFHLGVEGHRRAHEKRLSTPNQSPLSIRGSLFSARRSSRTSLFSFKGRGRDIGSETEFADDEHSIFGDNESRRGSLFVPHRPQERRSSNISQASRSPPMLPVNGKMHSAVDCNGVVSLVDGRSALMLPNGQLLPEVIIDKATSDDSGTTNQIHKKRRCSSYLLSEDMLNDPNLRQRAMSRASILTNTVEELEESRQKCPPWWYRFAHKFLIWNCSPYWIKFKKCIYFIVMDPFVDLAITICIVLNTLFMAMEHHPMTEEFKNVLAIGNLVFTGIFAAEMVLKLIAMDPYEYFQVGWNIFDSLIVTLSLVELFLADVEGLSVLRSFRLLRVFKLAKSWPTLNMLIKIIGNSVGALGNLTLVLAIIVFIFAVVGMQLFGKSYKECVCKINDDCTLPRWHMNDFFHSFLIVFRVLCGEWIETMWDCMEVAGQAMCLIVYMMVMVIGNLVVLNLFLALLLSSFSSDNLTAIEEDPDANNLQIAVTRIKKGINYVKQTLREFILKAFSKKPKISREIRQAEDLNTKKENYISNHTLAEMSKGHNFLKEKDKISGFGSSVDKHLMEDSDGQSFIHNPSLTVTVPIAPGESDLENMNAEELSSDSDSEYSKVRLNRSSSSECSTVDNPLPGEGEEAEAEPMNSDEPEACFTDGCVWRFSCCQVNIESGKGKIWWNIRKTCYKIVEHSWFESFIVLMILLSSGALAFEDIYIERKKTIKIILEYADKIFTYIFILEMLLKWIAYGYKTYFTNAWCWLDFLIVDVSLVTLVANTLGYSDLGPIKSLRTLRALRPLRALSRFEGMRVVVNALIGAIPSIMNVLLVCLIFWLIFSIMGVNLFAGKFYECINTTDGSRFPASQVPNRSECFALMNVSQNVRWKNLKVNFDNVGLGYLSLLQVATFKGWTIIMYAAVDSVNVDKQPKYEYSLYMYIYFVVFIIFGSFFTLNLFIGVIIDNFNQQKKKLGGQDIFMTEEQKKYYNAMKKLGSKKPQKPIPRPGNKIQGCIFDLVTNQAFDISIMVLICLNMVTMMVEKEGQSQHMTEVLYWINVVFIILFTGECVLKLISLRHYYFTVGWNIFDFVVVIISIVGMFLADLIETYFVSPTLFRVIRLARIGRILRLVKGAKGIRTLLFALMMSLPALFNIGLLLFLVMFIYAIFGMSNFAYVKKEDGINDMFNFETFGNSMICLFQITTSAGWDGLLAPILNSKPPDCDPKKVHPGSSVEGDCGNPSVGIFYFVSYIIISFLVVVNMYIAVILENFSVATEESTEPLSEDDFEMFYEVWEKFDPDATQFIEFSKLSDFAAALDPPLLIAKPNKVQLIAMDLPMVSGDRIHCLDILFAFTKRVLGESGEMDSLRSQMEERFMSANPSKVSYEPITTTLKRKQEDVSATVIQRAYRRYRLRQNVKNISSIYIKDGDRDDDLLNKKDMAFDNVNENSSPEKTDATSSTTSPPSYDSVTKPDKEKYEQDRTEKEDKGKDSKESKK
# Sequence of Sodium channel protein type 4 subunit alpha (P35499 whole entry): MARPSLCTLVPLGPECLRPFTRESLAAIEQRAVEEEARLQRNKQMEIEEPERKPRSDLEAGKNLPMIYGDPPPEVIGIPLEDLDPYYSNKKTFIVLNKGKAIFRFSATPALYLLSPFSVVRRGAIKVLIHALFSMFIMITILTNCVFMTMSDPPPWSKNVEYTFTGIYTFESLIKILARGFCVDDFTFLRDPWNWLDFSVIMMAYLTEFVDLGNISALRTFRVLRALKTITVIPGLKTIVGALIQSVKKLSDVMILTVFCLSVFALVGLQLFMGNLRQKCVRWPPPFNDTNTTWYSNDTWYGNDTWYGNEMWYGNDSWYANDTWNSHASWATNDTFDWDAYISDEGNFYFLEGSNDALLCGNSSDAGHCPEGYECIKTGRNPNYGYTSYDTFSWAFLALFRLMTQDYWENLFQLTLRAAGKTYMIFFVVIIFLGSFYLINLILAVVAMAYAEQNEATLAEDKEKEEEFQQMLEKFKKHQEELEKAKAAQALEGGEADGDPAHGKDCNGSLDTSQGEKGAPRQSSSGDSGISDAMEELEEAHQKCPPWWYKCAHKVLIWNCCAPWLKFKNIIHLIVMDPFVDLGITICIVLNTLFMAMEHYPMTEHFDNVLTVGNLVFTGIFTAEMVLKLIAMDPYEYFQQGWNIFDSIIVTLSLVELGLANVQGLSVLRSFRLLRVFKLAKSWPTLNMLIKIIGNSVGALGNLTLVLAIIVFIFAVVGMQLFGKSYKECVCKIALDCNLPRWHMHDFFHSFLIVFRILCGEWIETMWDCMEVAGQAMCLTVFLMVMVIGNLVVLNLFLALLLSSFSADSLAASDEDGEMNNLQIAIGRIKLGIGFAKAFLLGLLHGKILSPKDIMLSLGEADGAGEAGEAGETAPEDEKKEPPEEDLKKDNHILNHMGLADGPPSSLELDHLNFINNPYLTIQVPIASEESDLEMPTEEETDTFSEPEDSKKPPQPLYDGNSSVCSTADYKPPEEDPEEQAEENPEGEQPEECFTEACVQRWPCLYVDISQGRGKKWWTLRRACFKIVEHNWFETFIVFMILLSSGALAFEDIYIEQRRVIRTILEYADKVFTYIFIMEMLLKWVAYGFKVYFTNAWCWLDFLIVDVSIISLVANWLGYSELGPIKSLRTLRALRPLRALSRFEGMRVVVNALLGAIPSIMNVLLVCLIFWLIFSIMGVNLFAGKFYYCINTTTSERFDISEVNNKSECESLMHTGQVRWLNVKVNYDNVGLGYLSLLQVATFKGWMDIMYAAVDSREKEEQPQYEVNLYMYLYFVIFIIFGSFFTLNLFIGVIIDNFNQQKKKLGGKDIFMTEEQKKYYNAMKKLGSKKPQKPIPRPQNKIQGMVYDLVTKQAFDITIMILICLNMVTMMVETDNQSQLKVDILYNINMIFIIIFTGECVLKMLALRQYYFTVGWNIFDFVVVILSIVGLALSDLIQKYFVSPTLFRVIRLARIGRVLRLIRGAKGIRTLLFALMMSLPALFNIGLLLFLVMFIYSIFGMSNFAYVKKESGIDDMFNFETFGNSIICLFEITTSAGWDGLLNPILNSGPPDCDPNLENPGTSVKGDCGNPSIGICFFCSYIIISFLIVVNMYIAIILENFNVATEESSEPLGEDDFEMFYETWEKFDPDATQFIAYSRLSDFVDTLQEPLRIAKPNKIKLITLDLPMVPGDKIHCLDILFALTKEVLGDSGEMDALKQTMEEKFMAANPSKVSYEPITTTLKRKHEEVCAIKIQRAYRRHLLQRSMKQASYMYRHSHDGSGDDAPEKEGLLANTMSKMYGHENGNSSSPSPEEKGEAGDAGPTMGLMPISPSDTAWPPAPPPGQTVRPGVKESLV
compound,measurement,setting,value
"CC(=O)N[C@H]1CSSC[C@@H]2NC(=O)[C@@H]3CSSC[C@@H](C(=O)N[C@@H](CCCCN)C(=O)N[C@@H](CCCCN)C(=O)N[C@@H](CCCCN)C(=O)N[C@@H](CC(C)C)C(=O)N[C@@H](Cc4c[nH]c5ccccc45)C(=O)O)NC(=O)[C@H](Cc4c[nH]c5ccccc45)NC(=O)[C@H](C4CCCCC4)NC(=O)[C@H](CCCCN)NC(=O)[C@H](CSSC[C@H](NC(=O)[C@@H]4CCCN4C(=O)[C@H](CCC(=O)O)NC(=O)[C@H](CC(F)(F)F)NC(=O)[C@H](Cc4ccc(Cl)cc4)NC(=O)[C@H](CCCCN)NC(=O)[C@H](CCC(N)=O)NC1=O)C(=O)N[C@@H](CC(=O)O)C(=O)N[C@@H](CO)C(=O)N[C@@H](CCC(=O)O)C(=O)N[C@@H](CCCNC(=N)N)C(=O)N[C@@H](CCCCN)C(=O)N3)NC(=O)[C@H](CCC(=O)O)NC(=O)[C@H](CC(C)C)NC(=O)CNC(=O)[C@H](CCC(=O)O)NC2=O (Ac-CQK[Phe(4-Cl)][Abu(4,4,4-F3)]EPCDSERKCCEGLECK[Chg]WCKKKLW-OH; disulfide 1-15, 8-20, 14-24)",IC50,[1],11.1 µM
same,IC50,[2],> 17 µM
same,LED,[3],30 µM
same,IC50,[4],0.091 µM
"CC(=O)N[C@H]1CSSC[C@@H]2NC(=O)[C@@H]3CSSC[C@@H](C(=O)N[C@@H](CCCCN)C(=O)N[C@@H](CCCCN)C(=O)N[C@@H](CCCCN)C(=O)N[C@@H](CC(C)C)C(=O)N[C@@H](Cc4c[nH]c5ccccc45)C(N)=O)NC(=O)[C@H](Cc4c[nH]c5ccccc45)NC(=O)[C@H](CC(C)C)NC(=O)[C@H](CCCCN)NC(=O)[C@H](CSSC[C@H](NC(=O)[C@@H]4CCCN4C(=O)[C@H](CCC(=O)O)NC(=O)[C@H](CC(C)C)NC(=O)[C@H](Cc4ccccc4)NC(=O)[C@H](CCCCN)NC(=O)[C@H](CCC(N)=O)NC1=O)C(=O)N[C@@H](CC(=O)O)C(=O)N[C@@H](CCC(=O)O)C(=O)N[C@@H](CCC(=O)O)C(=O)N[C@@H](CCCNC(=N)N)C(=O)N[C@@H](CCCCN)C(=O)N3)NC(=O)[C@H](C(C)C)NC(=O)[C@H](CC(C)C)NC(=O)CNC(=O)[C@H](CCC(=O)O)NC2=O (Ac-CQKFLEPCDEERKCCEGLVCKLWCKKKLW-NH2; disulfide 1-15, 8-20, 14-24)",IC50,[1],> 17 µM
same,IC50,[2],> 17 µM
same,LED,[3],10 µM
same,IC50,[4],0.218 µM
"CC(=O)N[C@H]1CSSC[C@@H]2NC(=O)[C@@H]3CSSC[C@@H](C(=O)N[C@@H](CCCCN)C(=O)N[C@@H](CCCCN)C(=O)N[C@@H](CCCCN)C(=O)N[C@@H](CC(C)C)C(=O)N[C@@H](Cc4c[nH]c5ccccc45)C(N)=O)NC(=O)[C@H](Cc4c[nH]c5ccccc45)NC(=O)[C@H](CC(C)C)NC(=O)[C@H](CCCCN)NC(=O)[C@H](CSSC[C@H](NC(=O)[C@@H]4CCCN4C(=O)[C@H](C)NC(=O)[C@H](CC(C)C)NC(=O)[C@H](Cc4ccccc4)NC(=O)[C@H](CCCCN)NC(=O)[C@H](CCC(N)=O)NC1=O)C(=O)N[C@@H](CC(=O)O)C(=O)N[C@@H](CO)C(=O)N[C@@H](CCC(=O)O)C(=O)N[C@@H](CCCNC(=N)N)C(=O)N[C@@H](CCCCN)C(=O)N3)NC(=O)[C@H](CCC(=O)O)NC(=O)[C@H](CC(C)C)NC(=O)CNC(=O)[C@H](CCC(=O)O)NC2=O (Ac-CQKFLAPCDSERKCCEGLECKLWCKKKLW-NH2; disulfide 1-15, 8-20, 14-24)",IC50,[1],> 17 µM
same,IC50,[2],> 17 µM
same,LED,[3],10 µM
same,IC50,[4],0.063 µM
"CC(=O)N[C@H]1CSSC[C@@H]2NC(=O)[C@@H]3CSSC[C@@H](C(=O)N[C@@H](CCCCN)C(=O)N[C@@H](CCCCN)C(=O)N[C@@H](CCCCN)C(=O)N[C@@H](CC(C)C)C(=O)N[C@@H](Cc4c[nH]c5ccccc45)C(N)=O)NC(=O)[C@H](Cc4c[nH]c5ccccc45)NC(=O)[C@H](CC(C)C)NC(=O)[C@H](CCCCN)NC(=O)[C@H](CSSC[C@H](NC(=O)[C@@H]4CCCN4C(=O)[C@H](C)NC(=O)[C@H](CC(C)C)NC(=O)[C@H](Cc4ccccc4)NC(=O)[C@H](CCCCN)NC(=O)[C@H](CCC(N)=O)NC1=O)C(=O)N[C@@H](CC(=O)O)C(=O)N[C@@H](CCC(=O)O)C(=O)N[C@@H](CCC(=O)O)C(=O)N[C@@H](CCCNC(=N)N)C(=O)N[C@@H](CCCCN)C(=O)N3)NC(=O)[C@H](C(C)C)NC(=O)[C@H](CC(C)C)NC(=O)CNC(=O)[C@H](CCC(=O)O)NC2=O (Ac-CQKFLAPCDEERKCCEGLVCKLWCKKKLW-NH2; disulfide 1-15, 8-20, 14-24)",IC50,[1],10.3 µM
same,IC50,[2],15.2 µM
same,LED,[3],3.3 µM
same,IC50,[4],0.074 µM
"CC(=O)N[C@H]1CSSC[C@@H]2NC(=O)[C@@H]3CSSC[C@@H](C(=O)N[C@@H](CCCCN)C(=O)N[C@@H](CCCCN)C(=O)N[C@@H](CCCCN)C(=O)N[C@@H](CC(C)C)C(=O)N[C@@H](Cc4c[nH]c5ccccc45)C(N)=O)NC(=O)[C@H](Cc4c[nH]c5ccccc45)NC(=O)[C@H](CC(C)C)NC(=O)[C@H](CCCNC(=N)N)NC(=O)[C@H](CSSC[C@H](NC(=O)[C@@H]4CCCN4C(=O)[C@H](CCCCN)NC(=O)[C@H](CC(C)C)NC(=O)[C@H](Cc4ccccc4)NC(=O)[C@H](CCC(=O)O)NC(=O)[C@H](CCC(N)=O)NC1=O)C(=O)N[C@@H](CC(=O)O)C(=O)N[C@@H](CO)C(=O)N[C@@H](CCC(=O)O)C(=O)N[C@@H](CCCNC(=N)N)C(=O)N[C@@H](CCCCN)C(=O)N3)NC(=O)[C@H](CCC(=O)O)NC(=O)[C@H](CC(C)C)NC(=O)CNC(=O)[C@H](CCC(=O)O)NC2=O (Ac-CQEFLKPCDSERKCCEGLECRLWCKKKLW-NH2; disulfide 1-15, 8-20, 14-24)",IC50,[1],> 17 µM
same,IC50,[2],> 17 µM
same,LED,[3],3.3 µM
same,IC50,[4],0.091 µM
"CC(=O)N[C@H]1CSSC[C@@H]2NC(=O)[C@@H]3CSSC[C@@H](C(=O)N[C@@H](CCCCN)C(=O)N[C@@H](CCCCN)C(=O)N[C@@H](CCCCN)C(=O)N[C@@H](CC(C)C)C(=O)N[C@@H](Cc4c[nH]c5ccccc45)C(N)=O)NC(=O)[C@H](Cc4c[nH]c5ccccc45)NC(=O)[C@H](CC(C)C)NC(=O)[C@H](CCCNC(=N)N)NC(=O)[C@H](CSSC[C@H](NC(=O)[C@@H]4CCCN4C(=O)[C@H](CCC(=O)O)NC(=O)[C@H](CC(C)C)NC(=O)[C@H](Cc4ccccc4)NC(=O)[C@H](CCCCN)NC(=O)[C@H](CCC(N)=O)NC1=O)C(=O)N[C@@H](CC(=O)O)C(=O)N[C@@H](CO)C(=O)N[C@@H](CCC(=O)O)C(=O)N[C@@H](CCCNC(=N)N)C(=O)N[C@@H](CCCCN)C(=O)N3)NC(=O)[C@H](CCC(=O)O)NC(=O)[C@H](CC(C)C)NC(=O)CNC(=O)[C@H](CCC(=O)O)NC2=O (Ac-CQKFLEPCDSERKCCEGLECRLWCKKKLW-NH2; disulfide 1-15, 8-20, 14-24)",IC50,[1],> 17 µM
same,IC50,[2],> 17 µM
same,LED,[3],10 µM
same,IC50,[4],0.097 µM
"CC(=O)N[C@H]1CSSC[C@@H]2NC(=O)[C@@H]3CSSC[C@@H](C(=O)N[C@@H](CCCCN)C(=O)N[C@@H](CCCCN)C(=O)N[C@@H](CCCCN)C(=O)N[C@@H](CC(C)C)C(=O)N[C@@H](Cc4c[nH]c5ccccc45)C(N)=O)NC(=O)[C@H](Cc4c[nH]c5ccccc45)NC(=O)[C@H](CC(C)C)NC(=O)[C@H](CCCCN)NC(=O)[C@H](CSSC[C@H](NC(=O)[C@@H]4CCCN4C(=O)[C@H](CCCCN)NC(=O)[C@H](CC(C)C)NC(=O)[C@H](Cc4ccccc4)NC(=O)[C@H](CCC(=O)O)NC(=O)[C@H](CCC(N)=O)NC1=O)C(=O)N[C@@H](CC(=O)O)C(=O)N[C@@H](CO)C(=O)N[C@@H](CCC(=O)O)C(=O)N[C@@H](CCCNC(=N)N)C(=O)N[C@@H](CCCCN)C(=O)N3)NC(=O)[C@H](CCC(=O)O)NC(=O)[C@H](CC(C)C)NC(=O)CNC(=O)[C@H](CCC(=O)O)NC2=O (Ac-CQEFLKPCDSERKCCEGLECKLWCKKKLW-NH2; disulfide 1-15, 8-20, 14-24)",IC50,[1],> 17 µM
same,IC50,[2],> 17 µM
same,LED,[3],3.3 µM
same,IC50,[4],0.113 µM
"CC(=O)N[C@H]1CSSC[C@@H]2NC(=O)[C@@H]3CSSC[C@@H](C(=O)N[C@@H](CCCCN)C(=O)N[C@@H](CCCCN)C(=O)N[C@@H](CCCCN)C(=O)N[C@@H](CC(C)C)C(=O)N[C@@H](Cc4c[nH]c5ccccc45)C(N)=O)NC(=O)[C@H](Cc4c[nH]c5ccccc45)NC(=O)[C@H](CC(C)C)NC(=O)[C@H](CCCNC(=N)N)NC(=O)[C@H](CSSC[C@H](NC(=O)[C@@H]4CCCN4C(=O)[C@H](C)NC(=O)[C@H](CC(C)C)NC(=O)[C@H](Cc4ccccc4)NC(=O)[C@H](CCCCN)NC(=O)[C@H](CCC(N)=O)NC1=O)C(=O)N[C@@H](CC(=O)O)C(=O)N[C@@H](CO)C(=O)N[C@@H](CCC(=O)O)C(=O)N[C@@H](CCCNC(=N)N)C(=O)N[C@@H](CCCCN)C(=O)N3)NC(=O)[C@H](CCC(=O)O)NC(=O)[C@H](CC(C)C)NC(=O)CNC(=O)[C@H](CCC(=O)O)NC2=O (Ac-CQKFLAPCDSERKCCEGLECRLWCKKKLW-NH2; disulfide 1-15, 8-20, 14-24)",IC50,[1],> 17 µM
same,IC50,[2],> 17 µM
same,LED,[3],3.3 µM
same,IC50,[4],0.042 µM
"CC(=O)N[C@H]1CSSC[C@@H]2NC(=O)[C@@H]3CSSC[C@@H](C(=O)N[C@@H](CCCCN)C(=O)N[C@@H](CCCCN)C(=O)N[C@@H](CCCCN)C(=O)N[C@@H](CC(C)C)C(=O)N[C@@H](Cc4c[nH]c5ccccc45)C(N)=O)NC(=O)[C@H](Cc4c[nH]c5ccccc45)NC(=O)[C@H](CC(C)C)NC(=O)[C@H](C(C)C)NC(=O)[C@H](CSSC[C@H](NC(=O)[C@@H]4CCCN4C(=O)[C@H](C)NC(=O)[C@H](CC(C)C)NC(=O)[C@H](Cc4ccccc4)NC(=O)[C@H](CCCCN)NC(=O)[C@H](CCC(N)=O)NC1=O)C(=O)N[C@@H](CC(=O)O)C(=O)N[C@@H](CCCCN)C(=O)N[C@@H](/C=C/C(=O)O)C(=O)N[C@@H](CCCNC(=N)N)C(=O)N[C@@H](CCCCN)C(=O)N3)NC(=O)[C@H](CCC(=O)O)NC(=O)[C@H](CC(C)C)NC(=O)CNC(=O)[C@H](CCC(=O)O)NC2=O (Ac-CQKFLAPCDK[X1]RKCCEGLECVLWCKKKLW-NH2; disulfide 1-15, 8-20, 14-24)",IC50,[1],> 17 µM
same,IC50,[2],> 17 µM
same,LED,[3],33 µM
same,IC50,[4],0.099 µM
